Data on one compound can be found in US20250009774A1, “COMPOSITIONS AND METHODS USING A COMBINATION OF OLEUROPEIN AND MAGNESIUM” (SOCIETE DES PRODUITS NESTLE S.A., priority 2021, published 2025).

Structures are written as SMILES.

The assay has as its system myotubes differentiated from C2C12 cells. As to the kind of experiment: mitochondrial calcium elevation (mitochondrial aequorin luminescence) on caffeine stimulation. The conditions noted are these: 1 mM Mg^2+ + 3 μM Oea; C2C12-derived myotubes; 5 mM caffeine; n=32; P<0.05 Student's t-test; FIG. 1. In kind it is cell-based. On the procedure: To test the effect of Oleuropein aglycone (Oea), Mg^2+ and their combination on mitochondrial activation in living cells, the inventors measured mitochondrial calcium elevation in myotubes differentiated from C2C12 cells.
C2C12 cells were purchased from ATCC. C2C12 cells were seeded in 384-well plates at a density of 4500 cells per well in DMEM medium, high glucose (Gibco)+10% fetal calf serum. Myotubes were differentiated from C2C12 cells by growing the cells in DMEM containing 2% horse serum, for 6 days.
Mitochondrial calcium measurements were carried out using myotubes infected with the adenovirus (from Sirion biotech) expressing the luminescent mitochondrially-targeted calcium sensor mitochondrial mutated aequorin (Montero et al., 2004). […] Myotubes were stimulated with 5 mM of caffeine and the total calcium transiting during stimulation was calculated as the area under the curve, during caffeine stimulation. Luminescence was measured at the FLIPR cell imaging reader (Molecular devices). Calibration of the luminescence data into Calcium concentration was carried out using an algorithm as described previously (Alvarez & Montero, 2002). Custom module analysis based on Excel (Microsoft) and GraphPad Prism 7.02 (GraphPad) software was used for quantification.

For `C/C=C1/C(O)OC=C(C(=O)OC)[C@H]1CC(=O)OCCc1ccc(O)c(O)c1` (mixture of isomers) [Oleuropein aglycone], the “mitochondrial calcium rise: real measured effect of the combination vs expected theoretical effect (sum of Oea effect and Mg^2+ effect)” value is given as “synergies with Mg^2+ to activate mitochondria”.
